# Data taken from patent publication US20190008848A1, “IDENTIFICATION OF ADDITIONAL ANTI-PERSISTER ACTIVITY AGAINST BORRELIA BURGDORFERI FROM AN FDA DRUG LIBRARY” (THE JOHNS HOPKINS UNIVERSITY, priority 2015, published 2019).
# Structures can show the parent of a compound that is named as a salt. Where two headings read alike, the source gives them in different places. Bridge positions count the residues as written; N and C are the ends. Square brackets hold non-standard residues; d marks the D form. Peptide text beside a SMILES is read from it. * marks the point of attachment. Ileψ(thiazoline)Cys = CC[C@H](C)[C@H](N)C1=N[C@H](C(=O)*)CS1; dOrn = NCCC[C@@H](N)C(=O)O
# Experiments:
# [1] = test system: stationary phase B. burgdorferi; assay: SYBR Green I/PI viability assay (drug library screen, plate reader); settings: for viability at 50 µM: Borreliella burgdorferi, 168 h; for activity against stationary phase B. burgdorferi (in words): screen at 50 μM, 7 days; for Residual viable cells (SYBR/PI): Table 3
# Method: (§1) Borrelia burgdorferi strain B31 (ATCC35210) was received from the […] (Manassas, Va., USA) and was grown in BSK-H medium (HiMedia Laboratories, Mumbai, India) and 6% rabbit serum (Sigma Aldrich, St. Louis, Mo., USA). The culture was filtered and sterilized using a […] and incubated in capped sterile 50 mL conical tubes (BD Biosciences, CA, USA) at 33° C. for 7 days without antibiotics until the culture reached stationary phase.
# (§2) The cultures were examined using a Nikon Eclipse E800 microscope with differential interference contrast and epifluorescent illumination. The pictures were captured using a SPOT slider color camera. A SYBR Green I/PI assay was used to assess the viability of the bacterial sample using the ratio of live to dead B. burgdorferi (measured with green and red fluorescence, respectively) as measured by a plate reader.
# (§3) Briefly, prediluted drug stock (10 μL) was added to 7 day old stationary phase B. burgdorferi culture (90 μL) to achieve a 50 μM final drug concentration per well. The plates were then incubated at 33° C. for 7 days at which point the SYBR/PI rapid viability assay was performed in a fluorescence plate reader to obtain the green-red fluorescence ratio.
# [2] = test system: stationary phase B. burgdorferi; assay: Residual viable B. burgdorferi by epifluorescence microscope counting after drug exposure; settings: for viability at 50 µM: Borreliella burgdorferi, 168 h, read-out: Residual viable cells (Microscopy)
# Method: as §1, §2, §3
# [3] = read-out: Residual viable cells (SYBR Green/PI), Table 1, drugs 50 μM, 7 day old stationary phase cells treated for 7 days
# [4] = read-out: Residual viable cells (SYBR/PI), Table 3, drugs 50 μM, 7-day old stationary phase cells treated for 7 days
# [5] = Table 1, drugs 50 μM, 7 day old stationary phase cells treated for 7 days
# [6] = drugs 50 μM, 7-day old stationary phase cells treated for 7 days
# [7] = read-out: Residual viable cells (SYBR Green/PI)
# [8] = read-out: Residual viable cells (SYBR/PI)
Compound,"viability at 50 µM [1, 3]","viability at 50 µM [1, 4]",viability at 50 µM [2],further results
CC1(C)S[C@@H]2[C@H](NC(=O)[C@H](N)c3ccc(O)cc3)C(=O)N2[C@H]1C(=O)O [Amoxicillin],76%,76%,76%,
C[C@@H]1CC[C@H]2[C@@H](C)C(=O)O[C@@H]3O[C@@]4(C)CC[C@@H]1[C@]32OO4 [Artemesinin],49%,49%,45%,activity against stationary phase B. burgdorferi (in words) [1]: good activity
C[C@H]1[C@H](NC(=O)/C(=N\OC(C)(C)C(=O)O)c2csc(N)n2)C(=O)N1S(=O)(=O)O [Aztreonam],55%,55%,50%,
"CC[C@H](C)[C@H](N)C1=N[C@H](C(=O)N[C@@H](CC(C)C)C(=O)N[C@H](CCC(=O)O)C(=O)N[C@H](C(=O)N[C@H]2CCCCNC(=O)[C@H](CC(N)=O)NC(=O)[C@@H](CC(=O)O)NC(=O)[C@H](Cc3cnc[nH]3)NC(=O)[C@@H](Cc3ccccc3)NC(=O)[C@H]([C@@H](C)CC)NC(=O)[C@@H](CCCN)NC2=O)[C@@H](C)CC)CS1 [Bacitracin, Bacitracin zinc salt] ({Ileψ(thiazoline)Cys}-L[dE]IK[dOrn]I[dF]H[dD]N; lactam 4-C)",47%,47%,60%,
c1ccc(-c2ccc(C(c3ccccc3)n3ccnc3)cc2)cc1 (centres unmarked) [Bifonazole],48%,48%,50%,activity against stationary phase B. burgdorferi (in words) [1]: reasonable activity
CC1(C)S[C@@H]2[C@H](NC(=O)C(C(=O)O)c3ccccc3)C(=O)N2[C@H]1C(=O)O (some centres unmarked) [Carbenicillin],46%,46%,64%,
C=CC1=C(C(=O)O)N2C(=O)[C@@H](NC(=O)/C(=N\OCC(=O)O)c3csc(N)n3)[C@H]2SC1 [Cefixime],56%,56%,56%,
CO/N=C(\C(=O)N[C@@H]1C(=O)N2C(C(=O)O)=C(COC(N)=O)CS[C@H]12)c1ccco1 [Cefuroxime],43%,,49%,
CC(C)(C)C(=O)C(Oc1ccc(Cl)cc1)n1ccnc1 (centres unmarked) [Climbazole],,62%,71%,activity against stationary phase B. burgdorferi (in words) [1]: reasonable activity
CCCCCCCCCC(=O)N[C@@H](Cc1c[nH]c2ccccc12)C(=O)N[C@H](CC(N)=O)C(=O)N[C@@H](CC(=O)O)C(=O)N[C@@H]1C(=O)NCC(=O)N[C@@H](CCCN)C(=O)N[C@@H](CC(=O)O)C(=O)N[C@H](C)C(=O)N[C@@H](CC(=O)O)C(=O)NCC(=O)N[C@H](CO)C(=O)N[C@@H]([C@H](C)CC(=O)O)C(=O)N[C@@H](CC(=O)c2ccccc2N)C(=O)O[C@@H]1C [Daptomycin],28%,28%,35%,
C[C@H]1c2cccc(O)c2C(=O)C2=C(O)[C@]3(O)C(=O)C(C(N)=O)=C(O)[C@@H](N(C)C)[C@@H]3[C@@H](O)[C@@H]21 [Doxycycline],67%,67%,75%,
"Nc1nc(=O)[nH]cc1F [Flucytosine (5-Fluorocytosine), 5-Fluorocytosine]",,68%,66%,
"CN[C@@H]1C[C@@H](c2ccc(Cl)c(Cl)c2)c2ccccc21.Cl [Indatraline, Indatraline hydrochloride]",,,,"Residual viable cells (SYBR Green/PI) [1, 5]: 51%; Residual viable cells (SYBR/PI) [1, 6]: 51%; activity against stationary phase B. burgdorferi (in words) [1]: high activity; Residual viable cells (Microscopy) [2, 5]: 43%; Residual viable cells (Microscopy) ([2]; Table 3, drugs 50 μM, 7-day old stationary phase cells treated for 7 days): 43%"
CN(C)c1ccc2nc3ccc(=[N+](C)C)cc-3sc2c1 [Methylene blue hydrate],,,40%,activity against stationary phase B. burgdorferi (in words) [1]: good activity; activity against B. burgdorferi persisters by careful microscopy analysis (in words) ([2]; coloured drugs verified by microscopy): high activity
CN1CCCN=C1/C=C/c1cccc(O)c1 [Oxantel],44%,44%,63%,
Nc1nc2c(ncn2CCC(CO)CO)c(=O)[nH]1 [Penciclovir],64%,64%,60%,
c1ccc2c(c1)Nc1ccccc1S2 [Phenothiazine],,,53%,"viability at 50 µM [1, 7]: 54%; viability at 50 µM [1, 8]: 54%"
COc1ccc(C[C@H](N)C(=O)N[C@H]2[C@@H](O)[C@H](n3cnc4c(N(C)C)ncnc43)O[C@@H]2CO)cc1 [Puromycin],65%,65%,48%,
CCc1nc(N)nc(N)c1-c1ccc(Cl)cc1 [Pyrimethamine],45%,45%,55%,
CO[C@H]1/C=C/O[C@@]2(C)Oc3c(C)c([O-])c4c(O)c(cc(O)c4c3C2=O)NC(=O)/C(C)=C\C=C\[C@H](C)[C@H](O)[C@@H](C)[C@@H](O)[C@@H](C)[C@H](OC(C)=O)[C@@H]1C.[Na+] [Rifamycin SV],,,,Residual viable cells (Microscopy) [2]: 60%
CC(N)C12CC3CC(CC(C3)C1)C2 (centres unmarked) [Rimantadine],,68%,,
CC[C@H]1OC(=O)[C@H](C)[C@@H](O[C@H]2C[C@@](C)(OC)[C@@H](O)[C@H](C)O2)[C@H](C)[C@@H](O[C@@H]2O[C@H](C)C[C@H](N(C)C)[C@H]2O)[C@](C)(O)C[C@@H](C)/C(=N\OCOCCOC)[C@H](C)[C@@H](O)[C@]1(C)O [Roxithromycin],62%,62%,65%,

Compound,"viability at 50 µM [1, 3]","viability at 50 µM [1, 4]",viability at 50 µM [2],further results
O=C(Nc1ccccc1)c1ccccc1O [Salicylanilide],,,,"viability at 50 µM [1, 8]: 63%"
"O=C(O)c1cn(-c2ccc(F)cc2)c2cc(N3CCNCC3)c(F)cc2c1=O [Sarafloxacin, Sarafloxacin HCl]",47%,47%,50%,
Nc1ccc(S(=O)(=O)Nc2ccc(Cl)nn2)cc1 [Sulfachlorpyridazine],,,,"viability at 50 µM [1, 8]: 58%"
Cc1nc(NS(=O)(=O)c2ccc(N)cc2)oc1C [Sulfamoxole],57%,57%,55%,
"O=c1n(Cl)c(=O)n(Cl)c(=O)n1Cl [Symclosene (Trichloroisocyanuric acid), Trichloroisocyanuric acid]",,,,"viability at 50 µM [1, 8]: 60%"
C[C@]1(Cn2ccnn2)[C@H](C(=O)O)N2C(=O)C[C@H]2S1(=O)=O [Tazobactam],54%,54%,56%,
ClC(Cl)=C(Cl)Cl [Tetrachloroethylene],,,53%,"viability at 50 µM [1, 8]: 36%"
c1ccc(C2CN3CCSC3=N2)cc1 (centres unmarked) [Tetramisole],48%,48%,,
"CC(=O)Nc1ccc(/C=N/NC(N)=S)cc1 [Thiacetazone (Amithiozone), Amithiozone]",,73%,,
CS(=O)(=O)c1ccc([C@@H](O)[C@@H](CO)NC(=O)C(Cl)Cl)cc1 [Thiamphenicol],,57%,,
C=C(NC(=O)C(=C)NC(=O)c1csc(C2=N[C@@H]3c4csc(n4)[C@H]4NC(=O)c5csc(n5)[C@H]([C@](C)(O)[C@@H](C)O)NC(=O)[C@H]5CSC(=N5)/C(=C/C)NC(=O)[C@H]([C@@H](C)O)NC(=O)c5csc(n5)[C@]3(CC2)NC(=O)[C@H](C)NC(=O)C(=C)NC(=O)[C@H](C)NC(=O)[C@H]([C@@H](C)CC)N[C@@H]2C=Cc3c([C@H](C)O)cc(nc3[C@H]2O)C(=O)O[C@@H]4C)n1)C(N)=O [Thiostrepton],,,66%,"viability at 50 µM [1, 7]: 43%; viability at 50 µM [1, 8]: 43%"
"CCN(CC)CCOc1ccc2c(c1)C(=O)c1cc(OCCN(CC)CC)ccc1-2 [Tilorone, Tilorone dihydrochloride]",44%,44%,,activity against stationary phase B. burgdorferi (in words) [1]: good activity
Cc1cc(-n2c(=O)[nH]c(=O)n(C)c2=O)ccc1Oc1ccc(SC(F)(F)F)cc1 [Toltrazuril],43%,43%,60%,
NC1CCN(c2nc3c(cc2F)c(=O)c(C(=O)O)cn3-c2ccc(F)cc2F)C1 (centres unmarked) [Tosufloxacin],57%,57%,,
O=c1[nH]c(=O)n([C@H]2C[C@H](O)[C@@H](CO)O2)cc1C(F)(F)F [Trifluridine],,55%,,
C=CCCCCCCCCC(=O)O [Undecylenic acid],,55%,74%,
CC(C)[C@H](N)C(=O)OCCOCn1cnc2c(=O)[nH]c(N)nc21 [Valacyclovir],,58%,,
C[C@@H](c1ncncc1F)[C@](O)(Cn1cncn1)c1ccc(F)cc1F [Voriconazole],,65%,,
CC(=O)N[C@H]1[C@H]([C@H](O)[C@H](O)CO)OC(C(=O)O)=C[C@@H]1N=C(N)N [Zanamivir],49%,49%,60%,activity against stationary phase B. burgdorferi (in words) [1]: good activity
Nc1ccc([As](=O)(O)O)cc1 [p-Arsanilic acid],,,,"Residual viable cells (SYBR/PI) [1, 6]: 49%"
Penimepicycline,,,,Residual viable cells (Microscopy) [2]: 60%
